Measured values from patent US20240366560A1, “SMALL MOLECULE TREATMENT OF FATTY LIVER DISEASE AND HCC” (ScandiEdge Therapeutics AB, priority 2021, published 2024).

How the values were obtained:
[1] = test system: PKLR; test: PKLR protein level by western blot in HepG2, 2-day drug treatment; type: cell-based; conditions: HepG2, two days of treatment, dosages per FIG. 5, P<0.05, FIG. 2A
Description: WT HepG2 was included in this study and cultured by Roswell Park Memorial Institute (RPMI, […], Sigma Aldrich) 1640 Medium with 10% fetal bovine serum (FBS) and 1% penicillin-streptomycin (PS). To induce a steatosis model into WT HepG2 cells, high glucose Dulbecco's Modified Eagle Media (DMEM, […]/[…], Sigma-Aldrich) containing 10% FBS and 1% PS was used as medium for one week, together with 10 μg/mL insulin and 10 μM T0901317. All of cells were incubated in the incubator with 5% CO2 and 37° C. (Thermo […]). Fresh medium was provided every two days. As for drug-screening, different numbers of HepG2 cells were seeded for distinct experiments. More in details, 40,000 cells and 500,000 cells were used for 2-day-drug treatment in 96-well-plate and 6-well plate, respectively, while 80,000 cells and 300,000 cells were used for one-week drug treatment in 96-well plate and 6-well plate, respectively. […] Fresh medium was provided every two days. Protein content levels were detected by western blot. After the respective treatment of drugs, the cell pellets were lysed in cell lytic M, followed by protein extraction from supernatant (10 min, 13,000r/min centrifuge). Extracted cell lysate was stored in -20° C. Proteins were quantified through Bovine albumin serum (BAS) standard curve with protein assay dye reagent (BIO-RAD). The proteins were separated by SDS-PAGE with 100v in 90 min by mini-protein TGX precast gels (4-15%, 15 wells, 15 μl/well, BIO-RAD), and then transfer to Mini PVDF transfer package through transfer system (Transfer-Turbo, BIO-RAD). After 30 min blocking with 5% skim milk in cold room (4° C.) and washing with TBST, membrane was cut by the size of interested proteins. Primary antibodies were added into the corresponding membrane sections for overnight binding. Then the membranes were washed with TBST, and the secondary antibodies were incubated for 1 h in cold room. The following antibody were used: (Goat pAb to Rb lg, ab205718, abcam; Rb pAb to beta-actin, ab8227, abcam; […]; Rb pAb to fatty acid synthase, ab99539, abcam). The bindings were imaged by immunostaining and machine (ImageQuant LAS 500). All antibodies were purchased from Abcam online, and βactin was used as global normalized protein. After measurement, the strength of signal for each protein was quantified by ImageJ. The background noise was removed, and all results were normalized by the levels of β-actin. To determine the inhibitory effects of these drugs on the expression level of PKLR, HepG2 was selected as the in vitro model for coherence. […] HepG2 cells were treated with these drugs for two days with different dosages due to their potential cellular toxicities (FIG. 5), and the PKLR protein level was the measured by western blotting. The level of protein expression of PKLR of the drug-treated groups was compared to that of the Ctrl group after normalizing with β-actin.

[2] = test system: PKLR; test: PKLR protein level by western blot in steatosis-induced HepG2, 7-day drug treatment; type: cell-based; conditions: steatosis-induced HepG2, 7 days of drug treatment, P<0.05, FIG. 2B
Description: (§1) WT HepG2 was included in this study and cultured by Roswell Park Memorial Institute (RPMI, R2405, Sigma Aldrich) 1640 Medium with 10% fetal bovine serum (FBS) and 1% penicillin-streptomycin (PS). To induce a steatosis model into WT HepG2 cells, high glucose Dulbecco's Modified Eagle Media (DMEM, D0822/D5671, Sigma-Aldrich) containing 10% FBS and 1% PS was used as medium for one week, together with 10 μg/mL insulin and 10 μM T0901317. All of cells were incubated in the incubator with 5% CO2 and 37° C. (Thermo SCIENTIFIC). Fresh medium was provided every two days.
(§2) As for drug-screening, different numbers of HepG2 cells were seeded for distinct experiments. More in details, 40,000 cells and 500,000 cells were used for 2-day-drug treatment in 96-well-plate and 6-well plate, respectively, while 80,000 cells and 300,000 cells were used for one-week drug treatment in 96-well plate and 6-well plate, respectively. Detailed drug dosages could be found in FIG. 5. Fresh medium was provided every two days.
(§3) Protein content levels were detected by western blot. After the respective treatment of drugs, the cell pellets were lysed in cell lytic M, followed by protein extraction from supernatant (10 min, 13,000r/min centrifuge). Extracted cell lysate was stored in −20° C. Proteins were quantified through Bovine albumin serum (BAS) standard curve with protein assay dye reagent (BIO-RAD). The proteins were separated by SDS-PAGE with 100v in 90 min by mini-protein TGX precast gels (4-15%, 15 wells, 15 μl/well, BIO-RAD), and then transfer to Mini PVDF transfer package through transfer system (Transfer-Turbo, BIO-RAD). After 30 min blocking with 5% skim milk in cold room (4° C.) and washing with TBST, membrane was cut by the size of interested proteins. Primary antibodies were added into the corresponding membrane sections for overnight binding. Then the membranes were washed with TBST, and the secondary antibodies were incubated for 1 h in cold room. The following antibody were used: (Goat pAb to Rb lg, ab205718, abcam; Rb pAb to beta-actin, ab8227, abcam; anti-pklr, HPA006653, SIGMA; Rb pAb to fatty acid synthase, ab99539, abcam). The bindings were imaged by immunostaining and machine (ImageQuant LAS 500). All antibodies were purchased from Abcam online, and βactin was used as global normalized protein. After measurement, the strength of signal for each protein was quantified by ImageJ. The background noise was removed, and all results were normalized by the levels of β-actin.
(§4) To further analyse the effect of these drugs on lipid accumulation via the DNL pathway, steatosis was induced to HepG2 by treating the cells with high glucose medium (DMEM), insulin and T0901317 (Hansmannel et al., 2006). […] Therefore, the effects of these two drugs on the de novo synthesis of lipids were investigated based on the steatosis-induced HepG2 model. […] Taken together, it was shown that BX-912 and JNK-IN-5A effectively alleviate the protein expression of PKLR and FASN as well as TG levels in HepG2 cell lines, and thus, it was decided to perform in vivo evaluations to test the effect of these two drugs.

[3] = test system: FASN; test: FASN protein level by western blot in steatosis-induced HepG2, 7-day drug treatment; type: cell-based; conditions: steatosis-induced HepG2, 7 days of drug treatment, P<0.05, FIG. 2C
Description: as §1, §2, §3, §4

[4] = test system: FASN; conditions: high-glucose-cultured HepG2 cell model (Hosseini et al., 2020); cited from earlier work
[5] = test system: genes controlling fatty acid biosynthesis and Pcsk9; conditions: in vitro (Poirier et al., 2014); cited from earlier work

Molecule	protein expression of PKLR vs Ctrl, normalized with β-actin [1]	protein expression level of PKLR [2]	protein expression level of FASN [3]	expression level of Fasn [4]	expression level of a list of genes controlling fatty acid biosynthesis and Pcsk9 [5]
N#CC(c1ccnc(NCCc2cccnc2)n1)c1nc2ccccc2s1 (stereo not drawn) [AS-601245]	significantly down-regulated	significantly decreased	–	–	–
PF-477736	–	significantly decreased	significantly reduced	–	–
O=C(NC(NC(=S)Nc1ccc(F)c([N+](=O)[O-])c1)C(Cl)(Cl)Cl)C(c1ccccc1)c1ccccc1 (stereo not drawn) [CGK-733]	significantly down-regulated	–	–	–	–
Nc1ncn([C@@H]2O[C@H](CO)[C@@H](O)[C@H]2O)c(=O)n1 [Azacitidine]	significantly down-regulated	significantly decreased	significantly reduced	decreases	reduces
CC(C)(C)c1nc(-c2cccc(NS(=O)(=O)c3c(F)cccc3F)c2F)c(-c2ccnc(N)n2)s1 [Dabrafenib]	–	significantly decreased	significantly reduced	–	–
CCCS(=O)(=O)Nc1ccc(F)c(C(=O)c2c[nH]c3ncc(Cl)cc23)c1F [PLX-4720]	significantly down-regulated	significantly decreased	significantly reduced	–	–
